From PubChem BioAssay (NCI)
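Cells were grown in 96-well plates and exposed to each compound for 48 hours at five concentrations; endpoints were interpolated linearly between bracketing concentrations, or set to the highest concentration if not reached. TGI is the concentration that stops growth completely.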

Experiments:
Assay in all cases: DTP human tumour cell line panel, 48 h
XF 498 CNS = system: XF 498 CNS
SNB-78 CNS = system: SNB-78 CNS
COLO 205 colon = system: COLO 205 colon
KM12 colon = system: KM12 colon
DLD-1 colon = system: DLD-1 colon
LXFL 529 NSCLC = system: LXFL 529 NSCLC
SNB-19 CNS = system: SNB-19 CNS
M19-MEL melanoma = system: M19-MEL melanoma
RXF-631 renal = system: RXF-631 renal
DMS 114 small cell lung = system: DMS 114 small cell lung
DMS 273 small cell lung = system: DMS 273 small cell lung
KM20L2 colon = system: KM20L2 colon
HOP-18 NSCLC = system: HOP-18 NSCLC

SMILES | TGI (XF 498 CNS) [µM] | TGI (SNB-78 CNS) [µM] | TGI (COLO 205 colon) [µM] | TGI (KM12 colon) [µM] | TGI (DLD-1 colon) [µM] | TGI (LXFL 529 NSCLC) [µM] | TGI (SNB-19 CNS) [µM] | TGI (M19-MEL melanoma) [µM] | TGI (RXF-631 renal) [µM] | TGI (DMS 114 small cell lung) [µM] | TGI (DMS 273 small cell lung) [µM] | TGI (KM20L2 colon) [µM] | TGI (HOP-18 NSCLC) [µM]
O=C(O)c1ccc([C@@H]2C(=O)N(O)[C@@H]3C=CC[C@@H]32)cc1 | > 100 | > 100 | > 100 | > 100 | > 100 | > 100 | > 100 | > 100 | > 100 | > 100 | > 100 |  | 
NC(CCCCNCc1ccccc1)C(=O)O (stereo not drawn) |  | > 100 | > 100 | > 100 | > 100 | > 100 | > 100 | > 100 | > 100 | > 100 | > 100 | > 100 | > 100
CC(=O)NNc1nc(C)c(C(=O)/C=C/c2ccc(Cl)c(Cl)c2)s1 |  | > 100 | > 100 | > 100 | > 100 |  | > 100 | > 100 | > 100 | > 100 | > 100 | > 100 | > 100
CC(C)C(Sc1nc(-c2ccccc2)c(-c2ccccc2)[nH]1)c1n[nH]c(=S)n1-c1ccccc1 (stereo not drawn) | 80.3 | > 100 | 62.1 | 30.5 | > 100 | 54.4 | 56.8 | 35.5 |  |  | > 100 | 62.8 | 
COc1ccc(/C=C/C(=O)c2sc(-c3cccnc3)nc2C)cc1 |  | > 100 | > 100 | 44.5 | > 100 |  |  | > 100 | > 100 | > 100 | > 100 | > 100 | > 100
COc1ccccc1NC(=O)CC(=O)N1N=C(c2ccccc2)C(N=Nc2ccc(Cl)cc2)C1=O (stereo not drawn) | > 100 | > 100 | > 100 | > 100 | > 100 | > 100 | > 100 | > 100 | > 100 | > 100 | > 100 | > 100 | 
Cc1nc2c3c(ccc2[nH]c1=O)C(=O)c1ccccc1C3=O | > 100 |  | > 100 | > 100 | > 100 | > 100 | > 100 | > 100 |  | > 100 |  | > 100 | > 100
COc1ccc(/C=C2\CCC(CCN3CCOCC3)C2=O)cc1 (stereo not drawn) | > 100 | > 100 |  | > 100 | > 100 | > 100 | > 100 | > 100 |  | > 100 | > 100 | > 100 | > 100
COc1ccc2c(c1)[n+]([O-])c(/C(C)=N/NC(=O)c1ccccc1O)c(C)[n+]2[O-] | > 100 | > 100 |  | > 100 | > 100 | > 100 | > 100 | > 100 | > 100 | > 100 |  | > 100 | > 100
NC(N)=NS(=O)(=O)c1ccc(NC(=O)c2cccc3c(N)c4ccccc4nc23)cc1 | > 100 | > 100 | > 100 | > 100 | > 100 | > 100 | > 100 | > 100 | > 100 | > 100 | > 100 | > 100 | 
CC(C)c1ccc(/C=C/c2cc(C(=O)NNC(=O)NC3CCCCC3)nc(=S)[nH]2)cc1 | > 100 | > 100 | > 100 | > 100 | > 100 | > 100 | > 100 | > 100 | > 100 | > 100 | > 100 | > 100 | > 100
O=C(Cc1nc2ccc([N+](=O)[O-])cc2[nH]c1=O)C(=O)Nc1ccccc1[N+](=O)[O-] |  |  | > 100 | > 100 | > 100 | > 100 | > 100 | > 100 |  | > 100 | > 100 | > 100 | 
O=C(CC1(O)C(=O)Nc2c(Cl)cc(Cl)cc21)c1ccc(F)cc1 (stereo not drawn) | 39.9 | > 100 | 43 | > 100 | > 100 | > 100 | > 100 | 34 | > 100 | 58.9 | > 100 | > 100 | > 100
CCCCCCCCCCCCC(Br)C(C)=O (stereo not drawn) | > 100 | > 100 | > 100 | > 100 | > 100 | > 100 | > 100 | > 100 | > 100 | > 100 | > 100 | > 100 | > 100
COc1cc(CNc2cnc3ccc(N)cc3n2)cc(OC)c1OC |  | > 100 | > 100 | > 100 |  | > 100 | > 100 | > 100 |  | > 100 | > 100 | > 100 | > 100
CN(C)C(=NC#N)N(Cc1ccccc1)Cc1ccccc1 |  | > 100 | > 100 | > 100 | > 100 | > 100 | > 100 | > 100 |  |  | > 100 | > 100 | > 100
O=C(O)CCN(CCCN(CCC(=O)O)CCC(=O)O)CCC(=O)O | > 100 |  | > 100 | > 100 | > 100 | > 100 |  | > 100 | > 100 | > 100 | > 100 | > 100 | > 100
CCOC(=O)C1SC(=Nc2ccc(Cl)cc2Cl)N=C1C (stereo not drawn) | 94.1 | > 100 | > 100 | > 100 | > 100 | > 100 | > 100 | > 100 |  | > 100 | > 100 | > 100 | > 100
CC(C)OP(=O)(OC(C)C)C(=NCCN=C(NNc1ccccc1[N+](=O)[O-])P(=O)(OC(C)C)OC(C)C)NNc1ccccc1[N+](=O)[O-] |  |  | 54.9 | > 100 | > 100 | > 100 | > 100 | > 100 |  | > 100 | > 100 | 60.2 | 
COC(=O)C(c1ccc(OC)cc1)N1C(=O)[C@@H](NC(=O)c2ccccc2)[C@H]1[C@@H](C)O (stereo partly drawn) | > 100 | > 100 | > 100 | > 100 | > 100 | > 100 | > 100 | > 100 |  |  | > 100 | > 100 | 
S=C1CC(c2ccccc2)Sc2cc(Cl)ccc2N1 (stereo not drawn) |  |  | > 100 | > 100 |  |  | 38.7 |  |  |  |  |  | 
